# Values quoted from earlier work in publication PMC10216446 (Biomolecules, 2023).
# Key:
# [1] = stated as a known limitation of TNP, no reference given
# human cytochrome P450s = tested on: human cytochrome P450s; design: method as in PMID 27689003
# IP6K = conditions: reported values; read-out: reported IC50 values for TNP
compound,measurement,setting,value
"O=[N+]([O-])c1ccc(CNc2nc(NCc3cccc(C(F)(F)F)c3)nc3nc[nH]c23)cc1 [TNP, N2-(m-trifluorobenzyl), N6-(p-nitrobenzyl)purine]",aqueous solubility,[1],poor
same,inhibition of human cytochrome P450s,human cytochrome P450s,potent inhibitor of human cytochrome P450s
same,IC50,IP6K,250 to 1000 nM
